Source: patent US10501479B2, “Benzenesulfonyl-asymmetric ureas and medical uses thereof” (HELSINN HEALTHCARE SA, priority 2016, dated 2019)
Read-outs that look alike come from different tables or passages of the source.

Columns and labels:
Type in all cases: cell-based
[1] = target: T1, recombinant human ghrelin receptor (HEK293/GRLN) (Homo sapiens, UniProt Q92847); assay: Ghrelin inverse agonist potency (EC50) with IP-1 (IP-One HTRF) assay; settings: IP-1 assay
T1 construct: expressed in transfected cells
T1 sequence (Q92847 whole entry): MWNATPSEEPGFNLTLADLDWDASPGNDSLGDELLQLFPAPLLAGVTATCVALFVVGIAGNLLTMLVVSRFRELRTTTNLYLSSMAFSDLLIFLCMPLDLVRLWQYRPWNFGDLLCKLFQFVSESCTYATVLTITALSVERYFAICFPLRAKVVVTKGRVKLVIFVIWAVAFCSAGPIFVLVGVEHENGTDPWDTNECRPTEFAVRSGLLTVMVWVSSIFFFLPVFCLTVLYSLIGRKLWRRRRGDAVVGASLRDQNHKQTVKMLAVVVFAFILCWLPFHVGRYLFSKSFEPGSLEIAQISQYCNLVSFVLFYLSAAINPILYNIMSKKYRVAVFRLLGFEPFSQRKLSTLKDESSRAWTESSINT
Method: Evaluation of Ghrelin Inverse Agonist Potency (EC50) with IP-1 Assay:
HEK293 cells stably expressing recombinant human ghrelin receptor (HEK293/GRLN) were used in the IP-One HTRF assay. One day before the test, cells were seeded at a density of 1.5×10^4/well in a Matrigel® coated 384-well plate with 30 μL of complete Dulbecco's Modified Eagle's Medium and incubated at 37° C. in 5% CO2 for 18-22 hours. On the test day, the medium was removed by centrifugation at 600 rpm for 30 seconds, and 20 μL of stimulation buffer containing 1x tested compound was added with Bravo (Agilent technologies). The plate was then incubated at 37° C. 5% CO2 for 1 hour. After the incubation, 5 μL of IP1-d2 and 5 μL of Tb-Cryp were added to all wells using multidrop Combi(Thermo). After additional incubation at room temperature for 1 hour, the plates were read on Envision with 620 and 665 (Perkin Elmer).

[2] = target: T2, GHSR-1a (HEK293/GHSR1a cell line) (Homo sapiens, UniProt Q92847); assay: Ghrelin antagonist potency (IC50) with calcium FLIPR assay, ghrelin 10 nM
T2 construct: expressed in transfected cells; host or cells: HEK293/GHSR1a cell line
T2 sequence (Q92847 whole entry): as above
Summary of the method: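 Fluorescence read-out of intracellular calcium over 2 min. Agonist EC50 came from compound added alone at t=20 sec. Antagonist IC50 came from the reduction of the response to 10 nM ghrelin co-added with compound at t=20 sec. Both were fitted from dose-response data.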

[3] = target: T2, GHSR-1a (HEK293/GHSR1a cell line); assay: Ghrelin agonist potency (EC50) with calcium FLIPR assay; settings: HEK293/GHSR1a, read-out: Activity EC50/EMax: EC50 (ghrelin agonist potency)
Method: Evaluation of Ghrelin Agonist (EC50) and Antagonist Potency (IC50) with Calcium FLIPR Assay:
The intracellular calcium assay was carried out in a 384-well format FLIPR™ (Molecular Device) HEK293/GHSR1a cell line. Cells were seeded 24 hr prior to the experiments at an optimal density per well. Preincubation with selected calcium dye lasted for 30-60 min at room temperature or 37° C. Test compounds, dissolved in DMSO, were added at the appropriate time and incubated for 15 min followed by the addition of ghrelin with FlexStation or FLIPR. Relative fluorescence was monitored by the FLIPR™ Molecular Device. EC50 and IC50 values were estimated from dose-response data using GraphPad Prism software. To check for GHSR-1a agonism, the compound was added at t=20 sec. and the calcium response was followed for 2 minutes. To check for GHSR-1a antagonism, the compound and Ghrelin (10 nM) were added to the cells at t=20 sec. and the calcium response was measured for 2 minutes. The potency of the antagonist was calculated by its ability to reduce the ghrelin response. Dose-response curves were made for relevant antagonists.

[4] = HEK293/GHSR1a, ghrelin 10 nM, read-out: Activity IC50 (ghrelin antagonist potency)
[5] = ghrelin inverse agonist potency, read-out: Activity EC50
[6] = ghrelin antagonist potency, read-out: Activity IC50

| Structure (SMILES) | EC50 [3] | IC50 [2, 4] | also measured |
| --- | --- | --- | --- |
| O=C(NC(=O)c1cc(N2CCOCC2)ccc1Cl)Nc1ccc(S(=O)(=O)Cc2ccc3c(c2)CNC3)cc1 [H1249, 2-chloro-N-((4-((isoindolin-5-ylmethyl)sulfonyl)phenyl)carbamoyl)-5-morpholinobenzamide] |  |  | EC50 ([1]; inverse agonist potency, read-out: EC50 (Activity)): 1630 nM; IC50 ([2]; ghrelin antagonist potency, read-out: IC50 (Activity)): 3290 nM |
| CCc1ccc(Cl)c(C(=O)NC(=O)Nc2ccc(S(=O)(=O)Cc3ccc(CO)cc3)cc2)c1 [H1255, 2-chloro-5-ethyl-N-((4-((4-(hydroxymethyl)benzyl)sulfonyl)phenyl)carbamoyl)benzamide] | > 30000 nM | 2330 nM |  |
| CCc1ccc(Cl)c(C(=O)NC(=O)Nc2ccc(S(=O)(=O)Nc3ccc4c(c3)CNC4)cc2)c1 [H1259, 2-chloro-5-ethyl-N-((4-(N-(isoindolin-5-yl)sulfamoyl)phenyl)carbamoyl) benzamide] | > 30000 nM | 272 nM |  |
| CC(NC(=O)Nc1ccc(S(=O)(=O)N2CC3CNCC3C2)cc1)c1ccccc1 (stereo not drawn) [H1277, 1-(4-((hexahydropyrrolo[3,4-c]pyrrol-2(1H)-yl)sulfonyl)phenyl)-3-(1-phenylethyl)urea] | > 30000 nM | 8760 nM |  |
| CC(NC(=O)Nc1ccc(S(=O)(=O)Cc2ccncc2)cc1)c1ccccc1 (stereo not drawn) [H1280, 1-(1-phenylethyl)-3-(4-((pyridin-4-ylmethyl)sulfonyl)phenyl)urea] | > 30000 nM | 905 nM |  |
| C[C@H](NC(=O)Nc1ccc2c(c1)CC(c1ccc3c(c1)CN(C)C3)S2(=O)=O)c1ccccc1 (stereo partly drawn) [H1285, 1-(2-(2-methylisoindolin-5-yl)-1,1-dioxido-2,3-dihydrobenzo[b]thiophen-5-yl)-3-((S)-1-phenylethyl)urea] | 147 nM | 65 nM |  |
| CC(NC(=O)Nc1ccc(S(=O)(=O)Cc2ccc3c(c2)CNC3=O)cc1)c1ccccc1 (stereo not drawn) [H1292, 1-(4-(((1-oxoisoindolin-5-yl)methyl)sulfonyl)phenyl)-3-(1-phenylethyl)urea] | > 30000 nM | > 30000 nM |  |
| CC(NC(=O)Nc1ccc(S(=O)(=O)Cc2ccc3c(c2)C(N2CCCC2)CC3)cc1)c1ccccc1 (stereo not drawn) [H1294, 1-(1-phenylethyl)-3-(4-(((3-(pyrrolidin-1-yl)-2,3-dihydro-1H-inden-5-yl)methyl)sulfonyl)phenyl)urea] | 12900 nM | 3320 nM |  |
| C[C@H](NC(=O)Nc1ccc(S(=O)(=O)Cc2ccc(CN3CCC(O)C3)cc2)cc1)c1ccccc1 (stereo partly drawn) [H1313, 1-(4-((4-((3-hydroxypyrrolidin-1-yl)methyl)benzyl)sulfonyl)phenyl)-3-((S)-1-phenylethyl)urea] | > 30000 nM | 1460 nM |  |
| C[C@H](NC(=O)Nc1ccc(S(=O)(=O)Cc2ccc(CN3CCC(CO)C3)cc2)cc1)c1ccccc1 (stereo partly drawn) [H1314, 1-(4-((4-((3-(hydroxymethyl)pyrrolidin-1-yl)methyl)benzyl)sulfonyl)phenyl)-3-((S)-1-phenylethyl)urea] | > 30000 nM | 3100 nM |  |
| C[C@H](NC(=O)Nc1ccc(S(=O)(=O)Nc2ccc3c(c2)CCN(C)C3)cc1)c1ccccc1 [H1315, (S)-N-(2-methyl-1,2,3,4-tetrahydroisoquinolin-6-yl)-4-(3-(1-phenylethyl)ureido) benzenesulfonamide] | > 30000 nM | 301 nM |  |
| CC(NC(=O)Nc1ccc(S(=O)(=O)Cc2cccc(CN3CCCC3)c2)cc1)c1ccccc1 (stereo not drawn) [H1318, 1-(1-phenylethyl)-3-(4-((3-(pyrrolidin-1-ylmethyl)benzyl)sulfonyl)phenyl)urea] | > 30000 nM | 5310 nM |  |
| C[C@H](NC(=O)Nc1ccc(S(=O)(=O)Cc2ccc3c(c2)C2CCC3N2)cc1)c1ccccc1 (stereo partly drawn) [H1324, 1-((S)-1-phenylethyl)-3-(4-(((1,2,3,4-tetrahydro-1,4-epiminonaphthalen-6-yl)methyl)sulfonyl)phenyl)urea] | > 30000 nM | 10500 nM |  |
| C[C@H](NC(=O)Nc1ccc(S(=O)(=O)Cc2ccc3c(c2)C2CCC3N2C)cc1)c1ccccc1 (stereo partly drawn) [H1325, 1-(4-(((9-methyl-1,2,3,4-tetrahydro-1,4-epiminonaphthalen-6-yl)methyl)sulfonyl)phenyl)-3-((S)-1-phenylethyl)urea] | > 30000 nM | 3830 nM |  |
| C[C@H](NC(=O)Nc1ccc(S(=O)(=O)Cc2ccc(C3CCCN3)cc2)cc1)c1ccccc1 (stereo partly drawn) [H1328, 1-((S)-1-phenylethyl)-3-(4-((4-(pyrrolidin-2-yl)benzyl)sulfonyl)phenyl)urea] | > 30000 nM | 546 nM |  |
| CC(NC(=O)Nc1ccc(S(=O)(=O)Cc2ccc3nn(C)cc3c2)cc1)c1ccccc1 (stereo not drawn) [H1329, 1-(4-(((2-methyl-2H-indazol-5-yl)methyl)sulfonyl)phenyl)-3-(1-phenylethyl)urea] | > 30000 nM | > 30000 nM |  |
| CCN(CC)c1ccc(CS(=O)(=O)c2ccc(NC(=O)NC(C)c3cccc(Cl)c3Cl)cc2)cc1 (stereo not drawn) [H1360, 1-(1-(2,3-dichlorophenyl)ethyl)-3-(4-((4-(diethylamino)benzyl)sulfonyl)phenyl)urea] | > 30000 nM | > 30000 nM |  |
| CCN(CC)CCCS(=O)(=O)c1ccc(NC(=O)NC(C)c2cccc(Cl)c2Cl)cc1 (stereo not drawn) [H1361, 1-(1-(2,3-dichlorophenyl)ethyl)-3-(4-((3-(diethylamino)propyl)sulfonyl)phenyl)urea] | > 30000 nM | 1610 nM |  |
| COc1cc(N2C[C@@H](C)N[C@@H](C)C2)ccc1NS(=O)(=O)c1ccc(NC(=O)N[C@H](C)c2cccc(Cl)c2Cl)cc1 [H1362, 4-(3-((R)-1-(2,3-dichlorophenyl)ethyl)ureido)-N-(4-((cis)-3,5-dimethylpiperazin-1-yl)-2-methoxyphenyl) benzenesulfonamide] | > 30000 nM | 1550 nM |  |
| CC(NC(=O)Nc1ccc(S(=O)(=O)CC2CCCN(CC3CCCO3)C2)cc1)c1cccc(Cl)c1Cl (stereo not drawn) [H1375, 1-(1-(2,3-dichlorophenyl)ethyl)-3-(4-(((1-((tetrahydrofuran-2-yl)methyl)piperidin-3-yl)methyl)sulfonyl)phenyl)urea] | > 30000 nM | > 30000 nM |  |
| CC(c1ccccc1)N(C)C(=O)Nc1ccc(S(=O)(=O)Cc2ccc3c(c2)CNC3)cc1F (stereo not drawn) [H1399, 3-(2-fluoro-4-((isoindolin-5-ylmethyl)sulfonyl)phenyl)-1-methyl-1-(1-phenylethyl)urea] | > 30000 nM | 2060 nM |  |
| CC1Cc2cc(CS(=O)(=O)c3ccc(NC(=O)NC(C)c4cccc(Cl)c4Cl)c(F)c3)ccc2CN1 (stereo not drawn) [H1401, 1-(1-(2,3-dichlorophenyl)ethyl)-3-(2-fluoro-4-(((3-methyl-1,2,3,4-tetrahydroisoquinolin-6-yl)methyl)sulfonyl)phenyl)urea] | > 30000 nM | 3.4 nM |  |
| CC1Cc2cc(CS(=O)(=O)c3ccc(NC(=O)N(C)C(C)c4cccc(Cl)c4Cl)c(F)c3)ccc2CN1 (stereo not drawn) [H1402, 1-(1-(2,3-dichlorophenyl)ethyl)-3-(2-fluoro-4-(((3-methyl-1,2,3,4-tetrahydroisoquinolin-6-yl)methyl)sulfonyl)phenyl)-1-methylurea] | > 30000 nM | 75 nM |  |
| CC1Cc2cc(CS(=O)(=O)c3ccc(NC(=O)N[C@@H](C)c4cccc(Cl)c4Cl)cc3)ccc2CN1 (stereo partly drawn) [H1403, 1-((S)-1-(2,3-dichlorophenyl)ethyl)-3-(4-(((3-methyl-1,2,3,4-tetrahydroisoquinolin-6-yl)methyl)sulfonyl)phenyl)urea] | > 30000 nM | 1.5 nM |  |
| COc1ccc(C(C)NC(=O)Nc2ccc(S(=O)(=O)Cc3ccc4c(c3)CNC4)cc2)cc1Cl (stereo not drawn) [H1477, 1-(1-(3-chloro-4-methoxyphenyl)ethyl)-3-(4-((isoindolin-5-ylmethyl)sulfonyl)phenyl)urea] |  |  | EC50 [1, 5]: 17.4 nM; IC50 [2, 6]: 36.9 nM |
| CC(c1ccccc1)N(O)C(=O)Nc1ccc(S(=O)(=O)Cc2ccc3c(c2)CNC3)cc1 (stereo not drawn) [H1526, 1-hydroxy-3-(4-((isoindolin-5-ylmethyl)sulfonyl)phenyl)-1-(1-phenylethyl)urea] |  |  | EC50 [1, 5]: 21.9 nM; IC50 [2, 6]: 31.9 nM |
| CC(c1ccccc1)N(O)C(=O)Nc1ccc(S(=O)(=O)Cc2ccc3c(c2)CN(C)C3)cc1 (stereo not drawn) [H1527, 1-hydroxy-3-(4-(((2-methylisoindolin-5-yl)methyl)sulfonyl)phenyl)-1-(1-phenylethyl)urea] |  |  | EC50 [1, 5]: 34 nM; IC50 [2, 6]: 130 nM |
